EC50 and Emax data for 20 compounds are collected here from patent publication US20220306617A1, “SUBSTITUTED 1,3-PHENYL HETEROARYL DERIVATIVES AND THEIR USE IN THE TREATMENT OF DISEASE” (NOVARTIS AG, priority 2019, published 2022).

The test deals with T1, abc isoform of human TMEM16A channel expressed in CHO cells (Homo sapiens, UniProt Q5XXA6, DEL476-501).
T1 construct: expressed in transfected cells; host or cells: CHO cells, doxycycline-inducible expression under Blasticidin/Zeocin selection
T1 sequence (Q5XXA6 with tags, fused parts or gaps isoform Q5XXA6-5 DEL539-564): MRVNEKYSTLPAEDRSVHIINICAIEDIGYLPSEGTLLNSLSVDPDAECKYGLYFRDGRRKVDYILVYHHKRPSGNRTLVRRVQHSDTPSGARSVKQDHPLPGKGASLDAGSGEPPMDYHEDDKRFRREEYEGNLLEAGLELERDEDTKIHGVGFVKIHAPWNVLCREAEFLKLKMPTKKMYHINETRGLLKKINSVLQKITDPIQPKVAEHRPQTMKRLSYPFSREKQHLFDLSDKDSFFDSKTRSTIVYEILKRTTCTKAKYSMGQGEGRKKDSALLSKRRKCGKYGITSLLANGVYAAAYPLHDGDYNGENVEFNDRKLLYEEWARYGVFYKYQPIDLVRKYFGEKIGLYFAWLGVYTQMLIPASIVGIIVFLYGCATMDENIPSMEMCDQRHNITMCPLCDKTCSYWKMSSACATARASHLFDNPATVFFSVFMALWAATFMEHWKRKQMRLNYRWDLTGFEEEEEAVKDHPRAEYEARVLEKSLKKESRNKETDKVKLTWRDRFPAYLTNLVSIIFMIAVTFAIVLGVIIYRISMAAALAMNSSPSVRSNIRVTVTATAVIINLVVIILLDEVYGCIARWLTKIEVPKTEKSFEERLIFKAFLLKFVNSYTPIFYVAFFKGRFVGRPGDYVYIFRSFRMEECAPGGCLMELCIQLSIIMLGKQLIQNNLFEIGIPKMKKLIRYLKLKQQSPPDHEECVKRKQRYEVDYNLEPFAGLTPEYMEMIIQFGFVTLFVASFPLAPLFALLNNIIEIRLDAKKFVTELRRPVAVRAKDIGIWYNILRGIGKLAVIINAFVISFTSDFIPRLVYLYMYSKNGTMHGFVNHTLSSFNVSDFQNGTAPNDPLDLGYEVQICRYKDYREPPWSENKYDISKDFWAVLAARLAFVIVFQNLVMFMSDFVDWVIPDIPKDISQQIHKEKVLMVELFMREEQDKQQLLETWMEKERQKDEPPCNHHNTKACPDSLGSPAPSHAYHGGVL
Kind of test: Automated patch clamping (QPatch) assay to measure TMEM16A activity in whole-cell. To be noted: for EC50: CHO cells expressing human TMEM16A (abc), whole-cell automated patch clamp, Hill fit, read-out: TMEM16A QPATCH assay EC50 V3 EC50; for Emax: CHO, maximum current at highest dose relative to reference potentiator at maximal concentration (upper limit) and vehicle (lower limit), read-out: TMEM16A QPATCH assay EC50 V3 Assay Window (% TMEM16A max activation). It is filed as cell-based. Put shortly: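 Whole-cell currents were recorded by planar automated patch clamp from induced CHO cells (doxycycline 1 μg/mL, 18-24 h), using a −70 mV hold, +70 mV step and −90 to +70 mV ramp. Values: Hill-fitted EC50, and activation scaled between vehicle current and reference-potentiator maximum; 0.3% DMSO final.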

A word on the EC50: it is the concentration giving half of the maximal effect.

With `CCC(CC)NC(=O)c1cnc(-c2cccc(-c3cc(C(=O)N[C@@H](C)C4CC4)n(CCOC(C)C)n3)c2)o1` [Example 9.0, (S)-2-(3-(5-((1-Cyclopropylethyl)Carbamoyl)-1-(2-Isopropoxyethyl)-1 H-Pyrazol-3-Yl)Phenyl)-N-(Pentan-3-Yl)Oxazole-5-Carboxamide], the EC50 came out at 0.15 µM and the Emax came out at 137%.
Turning to `CCC(CC)NC(=O)c1cnc(-c2cccc(-c3cc(C(=O)N[C@@H](C)C4CC4)n(CC(O)C(F)(F)F)n3)c2)o1` (stereo partly drawn) [Example 9.1, 2-(3-(5-(((S)-1-Cyclopropylethyl)Carbamoyl)-1-(3,3,3-Trifluoro-2-Hydroxypropyl)-1H-Pyrazol-3-Yl)Phenyl)-N-(Pentan-3-Yl)Oxazole-5-Carboxamide], the EC50 amounted to 0.08 µM and the Emax came out at 155%.
In the same order, the values of `CCC(CC)NC(=O)c1cnc(-c2cccc(-c3cc(C(=O)N[C@@H](C)C4CC4)n(C4COC4)n3)c2)o1` [Example 9.3, (S)-2-(3-(5-((1-Cyclopropylethyl)Carbamoyl)-1-(Oxetan-3-Yl)-1H-Pyrazol-3-Yl)Phenyl)-N-(Pentan-3-Yl)Oxazole-5-Carboxamide] are 0.4 µM and 143%.
Consider `COC(=O)[C@@H](NC(=O)c1cnc(-c2cccc(-c3cc(C(=O)NC(C4CC4)C4CC4)n(CC(C)(C)O)n3)c2)o1)C(C)C` [Example 9.4, (S)-Methyl 2-(2-(3-(5-((Dicyclopropylmethyl)Carbamoyl)-1-(2-Hydroxy-2-Methylpropyl)-1 H-Pyrazol-3-Yl)Phenyl)Oxazole-5-Carboxamido)-3-Methylbutanoate], for which the EC50 is 0.42 µM and the Emax turned out to be 105%.
In the same order, the values of `CCC(CC)NC(=O)c1cnc(-c2cccc(-c3cc(C(=O)N[C@@H](C)C4CC4)n(CC(C)O)n3)c2)o1` (stereo partly drawn) [Example 9.5, 2-(3-(5-(((S)-1-Cyclopropylethyl)Carbamoyl)-1-(2-Hydroxypropyl)-1H-Pyrazol-3-Yl)Phenyl)-N-(Pentan-3-Yl)Oxazole-5-Carboxamide] are 0.24 µM and 104%.
As for `CCOC(=O)[C@@H](NC(=O)c1cnc(-c2cccc(-c3cc(C(=O)NC(C4CC4)C4CC4)n(CC(C)(C)O)n3)c2)o1)C(C)C` [Example 9.6, (S)-Ethyl 2-(2-(3-(5-((Dicyclopropylmethyl)Carbamoyl)-1-(2-Hydroxy-2-Methylpropyl)-1 H-Pyrazol-3-Yl)Phenyl)Oxazole-5-Carboxamido)-3-Methylbutanoate], the EC50 turned out to be 0.03 µM and the Emax is 100%.
Consider `CCC(CC)NC(=O)c1cnc(-c2cccc(-c3cc(C(=O)NC(CC)CC)n(CCO)n3)c2)o1` [Example 9.7, 2-(3-(1-(2-Hydroxyethyl)-5-(Pentan-3-Ylcarbamoyl)-1H-Pyrazol-3-Yl)Phenyl)-N-(Pentan-3-Yl)Oxazole-5-Carboxamide], for which the EC50 stood at 0.09 µM and the Emax turned out to be 85%.
For the compound `CCC(CC)NC(=O)c1cnc(-c2cccc(-c3cc(C(=O)N[C@@H](C)C4CC4)n(CCO)n3)c2)o1` [Example 9.8, (S)-2-(3-(5-((1-cyclopropylethyl)carbamoyl)-1-(2-hydroxyethyl)-1 H-pyrazol-3-yl)phenyl)-N-(pentan-3-yl)oxazole-5-carboxamide], the EC50 was 0.18 µM and the Emax came out at 88%.
Taken in the same sequence, the figures for `CCOC(=O)[C@@H](NC(=O)c1cc(-c2cccc(-c3ncc(C(=O)NC(C4CC4)C4CC4)o3)c2)nn1CC(C)(C)O)C(C)C` [Example 10.0, (S)-Ethyl 2-(3-(3-(5-((Dicyclopropylmethyl)Carbamoyl)Oxazol-2-Yl)Phenyl)-1-(2-Hydroxy-2-Methylpropyl)-1 H-Pyrazole-5-Carboxamido)-3-Methylbutanoate] were 0.04 µM and 116%.
In the same order, the values of `C[C@@H](NC(=O)c1cnc(-c2cccc(-c3cc(C(=O)N[C@H](C)C4CC4)n(CCO)n3)c2)o1)C1CC1` [Example 10.1, N-((R)-1-Cyclopropylethyl)-2-(3-(5-(((R)-1-Cyclopropylethyl)Carbamoyl)-1-(2-Hydroxyethyl)-1H-Pyrazol-3-yl)Phenyl)Oxazole-5-Carboxamide] are 0.32 µM and 101%.
In the same order, the values of `C[C@H](NC(=O)c1cc(-c2cccc(-c3ncc(C(=O)N[C@H](C)C4CC4)o3)c2)nn1CCO)C1CC1` [Example 10.2, N-((R)-1-Cyclopropylethyl)-2-(3-(5-(((S)-1-Cyclopropylethyl)Carbamoyl)-1-(2-Hydroxyethyl)-1H-Pyrazol-3-Yl)Phenyl)Oxazole-5-Carboxamide] are 0.68 µM and 108%.
With `CCOC(=O)[C@@H](NC(=O)c1cc(-c2cccc(-c3ncc(C(=O)NC(CC)CC)o3)c2)nn1CCOP(=O)(OCC)OCC)C(C)C` [Example 11.0, (S)-Ethyl 2-(1-(2-((Diethoxyphosphoryl)Oxy)Ethyl)-3-(3-(5-(Pentan-3-Ylcarbamoyl)Oxazol-2-Yl)Phenyl)-1H-Pyrazole-5-Carboxamido)-3-Methylbutanoate], the EC50 was 0.61 µM and the Emax turned out to be 128%.
As to `C[C@H](NC(=O)c1nnc(-c2cccc(-c3ncc(C(=O)N[C@@H](C)C4CC4)o3)c2)[nH]1)C1CC1` [Example 12.0, N-((S)-1-Cyclopropylethyl)-2-(3-(5-(((S)-1-Cyclopropylethyl)Carbamoyl)-4H-1,2,4-Triazol-3-Yl)Phenyl)Oxazole-5-Carboxamide], the EC50 came out at 0.3 µM and the Emax came to 63%.
`C[C@H](NC(=O)c1nnc(-c2cccc(-c3ncc(C(=O)N[C@H](C)C4CC4)o3)c2)[nH]1)C1CC1` [Example 12.1, N-((R)-1-Cyclopropylethyl)-2-(3-(5-(((S)-1-Cyclopropylethyl)Carbamoyl)-4H-1,2,4-Triazol-3-Yl)Phenyl)Oxazole-5-Carboxamide]: the EC50 is 0.27 µM and the Emax worked out at 80%.
For the compound `CCOC(=O)[C@@H](NC(=O)c1cnc(-c2cccc(-c3nnc(C(=O)N[C@@H](C)C4CC4)[nH]3)c2)o1)C(C)C` [Example 12.2, (S)-Ethyl 2-(2-(3-(5-(((S)-1-Cyclopropylethyl)Carbamoyl)-4H-1,2,4-Triazol-3-Yl)Phenyl)Oxazole-5-Carboxamido)-3-Methylbutanoate], the concentration giving a half-maximal response (EC50) turned out to be 0.05 µM and the Emax worked out at 112%.
Taken in the same sequence, the figures for `COC(=O)[C@@H](NC(=O)c1cnc(-c2cccc(-c3nnc(C(=O)N[C@@H](C)C4CC4)[nH]3)c2)o1)C(C)C` [Example 12.3, (S)-Methyl 2-(2-(3-(5-(((S)-1-Cyclopropylethyl)Carbamoyl)-4H-1,2,4-Triazol-3-Yl)Phenyl)Oxazole-5-Carboxamido)-3-Methylbutanoate] were 0.22 µM and 92%.
Take `CC(C)[C@H](NC(=O)c1cnc(-c2cccc(-c3nnc(C(=O)N[C@@H](C)C4CC4)[nH]3)c2)o1)C(=O)OC(C)(C)C` [Example 12.4, (S)-Tert-Butyl 2-(2-(3-(5-(((S)-1-Cyclopropylethyl)Carbamoyl)-4H-1,2,4-Triazol-3-Yl)Phenyl)Oxazole-5-Carboxamido)-3-Methylbutanoate]: the EC50 came out at 0.07 µM and the Emax came out at 119%.
In the same order, the values of `C[C@H](NC(=O)c1nnc(-c2cccc(-c3ncc(C(=O)NC(C4CC4)C4CC4)o3)c2)[nH]1)C1CC1` [Example 12.5, (S)-2-(3-(5-((1-Cyclopropylethyl)Carbamoyl)-4H-1,2,4-Triazol-3-Yl)Phenyl)-N-(Dicyclopropylmethyl)Oxazole-5-Carboxamide] are 0.03 µM and 92%.
Taken in the same sequence, the figures for `CCOC(=O)[C@@H](NC(=O)c1cnc(-c2cccc(-c3nnc(C(=O)NC(C4CC4)C4CC4)[nH]3)c2)o1)C(C)C` [Example 12.6, (S)-Ethyl 2-(2-(3-(5-((Dicyclopropylmethyl)Carbamoyl)-4H-1,2,4-Triazol-3-Yl)Phenyl)Oxazole-5-Carboxamido)-3-Methylbutanoate] were 0.02 µM and 142%.
In the same order, the values of `C[C@H](NC(=O)c1cnc(-c2cccc(-c3nnc(C(=O)NC(C4CC4)C4CC4)[nH]3)c2)o1)C1CC1` [Example 12.7, (S)-N-(1-Cyclopropylethyl)-2-(3-(5-((Dicyclopropylmethyl)Carbamoyl)-4H-1,2,4-Triazol-3-Yl)Phenyl)Oxazole-5-Carboxamide] are 0.02 µM and 91%.
